Test results taken from patent publication US20150104392A1, “COMPOSITIONS, BIOMARKERS AND THEIR USE IN THE TREATMENT OF CANCER” (Aptose Biosciences Inc., priority 2013, published 2015).

How the values were obtained:
[1] = test system: CA46; assay: XTT antiproliferative assay; type: cell-based; settings: Homo sapiens, 120 h; CA46, Non-Hodgkin's Lymphoma; 5 days incubation
Description: (§1) Antiproliferative activity of LOR-253 was determined by XTT assay as follows. Adherent cells (2×10^3/well) in 100 μL of growth medium were seeded in 96-well cell culture plates and incubated overnight at 37° C. The medium was removed and replaced with a total volume of 100 μL growth medium containing LOR-253 (or 0.1% DMSO vehicle control), as described in the respective experiments. Suspension cells were plated (4-6×10^3/well) in 50 μL growth medium, and 50 μL growth medium containing LOR-253 (or 0.1% DMSO vehicle control) was added to each well. After incubation of the cells at 37° C. for 5 days, cell viability was quantitated with the use of sodium 3′-[1-(phenylamino-carbonyl)-3,4-tetrazolium}-bis(4-methoxy-6-nitro)benzene sulfonic acid hydrate (XTT) colorimetric assay (Roche). XTT labeling reagent (1 mg/mL) was mixed with electron-coupling reagent, following the manufacturer's instructions, and 50 μL of the mixture was added directly to the cells. The plates were further incubated at 37° C. for 4 h, and the absorbance of each well was measured at 490 nm with a multiwell spectrophotometer (Bio-Tek Instruments Inc.). The data were adjusted relative to the blank and expressed as a percentage of cell growth compared with the vehicle control. (Ref. Huesca et al., Mol Cancer Ther. 2009. 8:2586-96; Lorus publication on LOR-133)

[2] = test system: CCRF-CEM; assay: XTT antiproliferative assay; type: cell-based; settings: Homo sapiens, 120 h, Acute lymphoblastic leukemia, 5 days incubation
Description: as §1

[3] = test system: DB; assay: XTT antiproliferative assay; type: cell-based; settings: Homo sapiens, 120 h, Non-Hodgkin's Lymphoma, 5 days incubation
Description: as §1

[4] = test system: EOL-1; assay: XTT antiproliferative assay; type: cell-based; settings: Homo sapiens, EOL1, 120 h; EOL-1, Acute myeloid leukemia; 5 days incubation
Description: as §1

[5] = test system: HEL92.1.7; assay: XTT antiproliferative assay; type: cell-based; settings: Homo sapiens, HEL 92.1.7, 120 h; HEL92.1.7, Acute myeloid leukemia; 5 days incubation
Description: as §1

[6] = test system: HL-60; assay: XTT antiproliferative assay; type: cell-based; settings: Homo sapiens, 120 h; HL-60, Acute myeloid leukemia; 5 days incubation
Description: as §1

[7] = test system: HuNS1; assay: XTT antiproliferative assay; type: cell-based; settings: 120 h; HuNS1, Multiple myeloma; 5 days incubation
Description: as §1

[8] = test system: Jurkat; assay: XTT antiproliferative assay; type: cell-based; settings: Homo sapiens, 120 h, Acute lymphoblastic leukemia, 5 days incubation
Description: as §1

[9] = test system: K562; assay: XTT antiproliferative assay; type: cell-based; settings: Homo sapiens, 120 h; K562, Chronic Myelogenous Leukemia; 5 days incubation
Description: as §1

[10] = test system: KG-1; assay: XTT antiproliferative assay; type: cell-based; settings: Homo sapiens, 120 h; KG-1, Acute myeloid leukemia; 5 days incubation
Description: as §1

[11] = test system: Kasumi-1; assay: XTT antiproliferative assay; type: cell-based; settings: Homo sapiens, 120 h; Kasumi-1, Acute myeloid leukemia; 5 days incubation
Description: as §1

[12] = test system: MM.1R; assay: XTT antiproliferative assay; type: cell-based; settings: 120 h, Multiple myeloma, 5 days incubation
Description: as §1

[13] = test system: MOLM13 (CD47+); assay: XTT antiproliferative assay; type: cell-based; settings: Homo sapiens, MOLM-13, 120 h, Acute myeloid leukemia, 5 days incubation
Description: as §1

[14] = test system: MOLT-4; assay: XTT antiproliferative assay; type: cell-based; settings: Homo sapiens, 120 h; MOLT-4, Acute lymphoblastic leukemia; 5 days incubation
Description: as §1

[15] = test system: MV-4-11; assay: XTT antiproliferative assay; type: cell-based; settings: Homo sapiens, MV4-11, 120 h; MV-4-11, Acute myeloid leukemia; 5 days incubation
Description: as §1

[16] = test system: Mino; assay: XTT antiproliferative assay; type: cell-based; settings: Homo sapiens, 120 h, Non-Hodgkin's Lymphoma, 5 days incubation
Description: as §1

[17] = test system: NB4; assay: XTT antiproliferative assay; type: cell-based; settings: Homo sapiens, NB-4, 120 h; NB4, Acute myeloid leukemia; 5 days incubation
Description: as §1

[18] = test system: NOMO-1; assay: XTT antiproliferative assay; type: cell-based; settings: Homo sapiens, 120 h; NOMO-1, Acute myeloid leukemia; 5 days incubation
Description: as §1

[19] = test system: OCI-AML2; assay: XTT antiproliferative assay; type: cell-based; settings: Homo sapiens, 120 h; OCI-AML2, Acute myeloid leukemia; 5 days incubation
Description: as §1

[20] = test system: RL; assay: XTT antiproliferative assay; type: cell-based; settings: Homo sapiens, 120 h, Non-Hodgkin's Lymphoma, 5 days incubation
Description: as §1

[21] = test system: Raji; assay: XTT antiproliferative assay; type: cell-based; settings: Homo sapiens, 120 h, Non-Hodgkin's Lymphoma, 5 days incubation
Description: as §1

[22] = test system: Ramos; assay: XTT antiproliferative assay; type: cell-based; settings: Homo sapiens, 120 h, Non-Hodgkin's Lymphoma, 5 days incubation
Description: as §1

[23] = test system: SKM-1; assay: XTT antiproliferative assay; type: cell-based; settings: Homo sapiens, 120 h; SKM-1, Acute myeloid leukemia; 5 days incubation
Description: as §1

[24] = test system: THP-1; assay: XTT antiproliferative assay; type: cell-based; settings: Homo sapiens, 120 h; THP-1, Acute myeloid leukemia; 5 days incubation
Description: as §1

[25] = test system: Toledo; assay: XTT antiproliferative assay; type: cell-based; settings: Homo sapiens, 120 h, Non-Hodgkin's Lymphoma, 5 days incubation
Description: as §1

[26] = test system: U266B1; assay: XTT antiproliferative assay; type: cell-based; settings: 120 h; U266B1, Multiple myeloma; 5 days incubation
Description: as §1

[27] = test system: KLF4 protein; assay: Pharmacodynamic response, KLF4 protein level in tumors; type: in vivo; settings: mice; 1, 5 and 15 mg/kg for 5 consecutive days; 16 hours after last dose
Description: To study the pharmacodynamic (PD) responses, mice were treated for 5 consecutive days with 1, 5, and 15 mg/kg LOR-253. Tumors were measured 16 hours after the last dose, and the KLF-4 protein level was measured.

Cc1[nH]c2ccc(F)cc2c1-c1nc2c3cccnc3c3ncccc3c2[nH]1 [LOR-253]
IC50 [1]: 190 nM | IC50 [2]: 39 nM | IC50 [3]: 99 nM | IC50 [4]: 58 nM | IC50 [5]: 305 nM | IC50 [6]: 46 nM | IC50 [7]: 72 nM | IC50 [8]: 71 nM | IC50 [9]: 250 nM | IC50 [10]: 33 nM | IC50 [11]: 6.9 nM | IC50 [12]: 150 nM | IC50 [13]: 130 nM | IC50 [14]: 70 nM | IC50 [15]: 69 nM | IC50 [16]: 140 nM | IC50 [17]: 60 nM | IC50 [18]: 121 nM | IC50 [19]: 76 nM | IC50 [20]: 190 nM | IC50 [21]: 11 nM | IC50 [22]: 125 nM | IC50 [23]: 145 nM | IC50 [24]: 77 nM | IC50 [25]: 77 nM | IC50 [26]: 180 nM | average KLF4 protein levels in tumors [27]: increased in a dose-dependent manner
